Assays:
MCF7 = assay: Breast Cancer Cell Proliferation Assay (MCF-7), Cell Titer-Glo; format: cell-based; settings: Homo sapiens, MCF7, 120 h, MCF7 cells, 5 days of compound exposure
In short: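 MCF7 cells in phenol red-free DMEM/F12 with charcoal-stripped FBS exposed 5 days to 10-point dilutions (10–0.000005 μM final), 17β-estradiol as control. Viability by CellTiter-Glo luminescence, background-subtracted and expressed relative to estrogen-only treated cells; day-1 pretreatment wells plated.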

[1] = Pharmacokinetic Determination (Mouse PK); format: in vivo, female CD-1 mice; settings: female; for Kp at 2 h: CD-1, PO 10.0 mg/kg, Brain concentration vs plasma concentration at 2 hours post dosing, read-out: B/P ratio; for bioavailability: PO 10.0 mg/kg vs IV 3.0 mg/kg
Method: Pharmacokinetic Determination
Grouping female CD-1 mice weighing 20-30 g randomly to three groups; one group was administered with test compound at a dose of 3.0 mg/kg by intravenous injection, the other two groups were administered with test compound at a dose of 10.0 mg/kg by oral. The formulation for IV groups is DMSO/PEG400/30% HP-β-CD (5/20/75) and the formulation for PO groups is 25% HP-β-CD in 25 mM citrate buffer (pH3.0). After administering, blood samples of intravenous injection group were collected at time points of predose, 0.0833, 0.25, 0.5, 1, 2, 4, 8, 12 and 24 h; blood samples of oral group were collected at time points of predose, 0.25, 0.5, 1, 2, 4, 8, 12, and 24 h. Both blood samples and brain samples were collected at 2 hours post dosing for the second PO group. Standard curve was plotted based on concentrations of the samples in a suitable range, the concentrations of test compounds in plasma samples and brain samples were determined by using LC-MS/MS. Pharmacokinetic parameters were calculated according to drug concentration-time curve using a noncompartmental method by WinNonLin (Phoenix™, version 6.1) or other similar software.

[2] = tested on: MCF-7 Human Breast Cancer Orthotopic Model; assay: Efficacy Study on MCF-7 Human Breast Cancer Orthotopic Model (tumor growth inhibition); format: in vivo, mouse; settings: tumor growth inhibition = (1−(Td−T0)/(Cd−C0))×100%; MCF-7 orthotopic model
Method: Efficacy Study on MCF-7 Human Breast Cancer Orthotopic Model
The MCF-7 tumor cell line were maintained in vitro as monolayer culture in DMEM Medium supplemented with 15% heat inactivated fetal bovine serum at 37° C. in an atmosphere of 5% CO2 in air. The medium were renewed every 2 to 3 days and tumor cells were routinely subcultured at a confluence of 80%-90% by trypsin-EDTA, not to exceed 4-5 passages. The cells growing in an exponential growth phase were harvested and counted for tumor inoculation.
Each mouse was inoculated subcutaneously on the 2nd right mammary fat pad with the single cell suspension of 95% viable tumor cells (1.5×10^7) in 200 μL DMEM Matrigel mixture (1:1 ratio) without serum for the tumor development. The treatments were started when mean tumor size reached 195 mm^3.
The measurement of tumor size was conducted twice a week with a caliper and the tumor volume (mm^3) was estimated using the formula: TV=a×b^2/2 throughout the study, where “a” and “b” was long and short diameters of a tumor, respectively. The TVs were used for calculation of the tumor growth inhibition (TGI, an indicator of antitumor effectiveness) value using the formula: (1−(Td−T0)/(Cd−C0))×100%. Td and Cd are the mean tumor volumes of the treated and control animals, and T0 and C0 are the mean tumor volumes of the treated and control animals at the start of the experiment. The tumor regression was defined as individual tumor volume decrease (terminal TV compares to initial TV). The percent tumor regression was calculated using the formula: (1−(Td/T0))×100%.

[3] = Plasma and tumor PK analysis post final dosing in MCF-7 orthotopic model; format: in vivo, mouse; settings: MCF-7 orthotopic model mice; for Tumor AUC: tumor samples 2 h, 8 h and 24 h post final dosing; for AUC / Kp: mouse; for AUC: plasma, post final dosing, 0.25-24 h; for Kp: tumor AUC vs plasma AUC, read-out: Tumor/Plasma ratio
Method: Plasma samples were collected with seven time points (0.25 h, 0.5 h, 1 h, 2 h, 4 h, 8 h, and 24 h) post final dosing for PK analysis. Tumor samples were collected with three time points (2 h, 8 h and 24 h) post final dosing for PK analysis.

C[C@@H]1Cc2c([nH]c3ccccc23)[C@@H](c2c(F)cc(NC3CN(CCCF)C3)cc2F)N1CC(F)(F)CO [GDC9545, reference compound]
IC50 (MCF7): ≤ 25 nM | Kp at 2 h [1]: 0.17 | AUC(0-t) ([1]; CD-1, plasma, PO, 10.0 mg/kg): 13.3 µM·h | Cmax ([1]; CD-1, plasma, PO, 10.0 mg/kg): 960 nM | Tmax ([1]; CD-1, plasma, PO, 10.0 mg/kg): 4 h | half-life ([1]; CD-1, plasma, PO, 10.0 mg/kg): 8.66 h | TGI [2]: 130% | Tumor AUC [3]: 183743 ng·h/mL | AUC [3]: 10500 ng·h/mL | Kp [3]: 17.5

CCCN1CC(Nc2ccc([C@@H]3c4[nH]c5ccccc5c4C[C@@H](C)N3C34CC(C3)C4)cc2)C1 [Compound 31, N-(4-((1R,3R)-2-(bicyclo[1.1.1]pentan-1-yl)-3-methyl-2,3,4,9-tetrahydro-1H-pyrido[3,4-b]indol-1-yl)phenyl)-1-propylazetidin-3-amine]
IC50 (MCF7): ≤ 25 nM | Kp at 2 h [1]: 12 | AUC(0-t) ([1]; CD-1, plasma, IV, 3.0 mg/kg): 1.03 µM·h | bioavailability ([1]; CD-1, plasma): 87.7% | AUC(0-t) ([1]; CD-1, plasma, PO, 10.0 mg/kg): 3 µM·h | Cmax ([1]; CD-1, plasma, PO, 10.0 mg/kg): 240 nM | Tmax ([1]; CD-1, plasma, PO, 10.0 mg/kg): 2 h | TGI [2]: 106% | Tumor AUC [3]: 360399 ng·h/mL | AUC [3]: 6780 ng·h/mL | Kp [3]: 53.1

C[C@@H]1Cc2c([nH]c3ccccc23)[C@@H](c2ccc(N[C@H]3CCN(CCCF)C3)cc2)N1C12CC(C1)C2 [Compound 42, (S)—N-(4-((1R,3R)-2-(bicyclo[1.1.1]pentan-1-yl)-3-methyl-2,3,4,9-tetrahydro-1H-pyrido[3,4-b]indol-1-yl)phenyl)-1-(3-fluoropropyl)pyrrolidin-3-amine]
IC50 (MCF7): ≤ 25 nM | Kp at 2 h [1]: 29.4 | AUC(0-t) ([1]; CD-1, plasma, IV, 3.0 mg/kg): 1.51 µM·h | clearance ([1]; CD-1, plasma, IV, 3.0 mg/kg): 40 mL/min/kg | bioavailability ([1]; CD-1, plasma): 55.4% | AUC(0-t) ([1]; CD-1, plasma, PO, 10.0 mg/kg): 2.79 µM·h | Cmax ([1]; CD-1, plasma, PO, 10.0 mg/kg): 220 nM | Tmax ([1]; CD-1, plasma, PO, 10.0 mg/kg): 1 h | TGI [2]: 106% | Tumor AUC [3]: 296719 ng·h/mL | AUC [3]: 5310 ng·h/mL | Kp [3]: 55.9

Reference: patent publication US11999728B2, “Estrogen receptor modulators” (Recurium IP Holdings, LLC, priority 2020, dated 2024)
